This passage reports Ki, EC50 and Papp results from US9199949B2, “Selective glycosidase inhibitors and uses thereof” (Alectos Therapeutics Inc., priority 2011, dated 2015).

Molecules are shown by their SMILES.

One data set concerns the target human O-GlcNAcase (Homo sapiens (Human), UniProt O60502). Put plainly: Assay for determination of KI values for inhibition of O-GlcNAcase activity (fluorescence-based hOGA). In kind it is biochemical. To be noted: purified human O-GlcNAcase, 4-Methylumbelliferyl N-acetyl-β-D-glucosaminide substrate, pH 7.0, Cheng-Prusoff. Here is the method: Experimental Procedure for Kinetic Analyses: Enzymatic reactions were carried out in a reaction containing 50 mM NaH2PO4, 100 mM NaCl and 0.1% BSA (pH 7.0) using 2 mM 4-Methylumbelliferyl N-acetyl-β-D-glucosaminide dihydrate (Sigma M2133) dissolved in ddH2O, as a substrate. The amount of purified human O-GlcNAcase enzyme used in the reaction was 0.7 nM. Test compound of varying concentrations was added to the enzyme prior to initiation of the reaction. The reaction was performed at room temperature in a 96-well plate and was initiated with the addition of substrate. […] The slope of product production was determined for each concentration of compound tested and plotted, using standard curve fitting algorithms for sigmoidal dose response curves. The values for a four parameter logistic curve fit of the data were determined.

Another data set concerns the target O-GlcNAcase (Rattus norvegicus (Rat), UniProt Q8VIJ5). The data set is described as follows: Cell-based ELISA for cellular activity of O-GlcNAcase inhibitors (O-GlcNAcylated protein, RL-2 antibody). The following applies: rat PC-12 cells, 24 h treatment, O-GlcNAcylated protein by RL-2 ELISA. As for the experimental part:
Inhibition of O-GlcNAcase, which removes O-GlcNAc from cellular proteins, results in an increase in the level of O-GlcNAcylated protein in cells. An increase in O-GlcNAcylated protein can be measured by an antibody, such as RL-2, that binds to O-GlcNAcylated protein. The amount of O-GlcNAcylated protein:RL2 antibody interaction can be measured by enzyme linked immunosorbant assay (ELISA) procedures.
Compounds to be tested were dissolved in DMSO, either 2 or 10 mM stock solution, and then diluted with DMSO and water in a two-step process using a Tecan workstation. […] To prepare a cell lysate, the media from compound treated cells was removed, the cells were washed once with phosphate buffered saline (PBS) and then lysed for 5 minutes at room temperature in 50 μL of Phosphosafe reagent (Novagen Inc, Madison, Wis.) with protease inhibitors and PMSF. The cell lysate was collected and transferred to a new plate, which was then either coated to assay plates directly or frozen −80° C. until used in the ELISA procedure. If desired, the total protein concentration of samples was determined using 20 μL of the sample using the BCA method.
The ELISA portion of the assay was performed in a black Maxisorp 96-well plate that was coated overnight at 4° C. with 100 μL/well of the cell lysate (1:10 dilution of the lysate with PBS containing protease inhibitors, phosphatase inhibitors, and PMSF). The following day the wells were washed 3 times with 300 μL/well of Wash buffer (Tris-buffered saline with 0.1% Tween 20).
The amount of O-GlcNAcylated protein, as detected by the ELISA assay, was plotted for each concentration of test compound using standard curve fitting algorithms for sigmoidal dose response curves. The values for a four parameter logistic curve fit of the data were determined, with the inflection point of the curve being the potency value for the test compound.

Data set [1] in a line: Assay for determination of apparent permeability (Papp) in LLC-PK1 cells. In kind it is in vitro ADME. To be noted: pig, t=3 h, average of A to B and B to A. Here is the method: Bi-directional transport was evaluated in LLC-PK1 cells in order to determine apparent permeability (Papp). LLC-PK1 cells can form a tight monolayer and therefore can be used to assess vectorial transport of compounds from basolateral to apical (B→A) and from apical to basolateral (A→B).
To determine Papp, LLC-PK1 cells were cultured in 96-well transwell culture plates (Millipore). Solutions containing the test compounds (1 μM) were prepared in Hank's Balanced Salt Solution with 10 mM HEPES. Substrate solution (150 μL) was added to either the apical (A) or the basolateral (B) compartment of the culture plate, and buffer (150 μL) was added to the compartment opposite to that containing the compound. At t=3 h, 50 μL samples were removed from both sides of monolayers dosed with test compound and placed in 96 well plates, scintillant (200 μL) or internal standard (100 μL labetolol 1 μM) was added to the samples and concentration was determined by liquid scintillation counting in a MicroBeta Wallac Trilux scintillation counter (Perkin Elmer Life Sciences, Boston, Mass.) or by LCMS/MS (Applied Biosystems SCIEX API 5000 triple quadruple mass spectrometer). [^3H]Verapamil (1 μM) was used as the positive control. The experiment was performed in triplicate.
[formula] Where: Volume of Receptor Chamber was 0.15 mL; Area of membrane was 0.11 cm^2; the Initial Concentration is the sum of the concentration measured in the donor plus concentration measured in receiver compartments at t=3 h; Δ in Concentration is concentration in the receiver compartment at 3 h; and Δ in Time is the incubation time (3×60×60=10800 s). Papp was expressed as 10^−6 cm/s.

Chain of human O-GlcNAcase (O60502 whole entry): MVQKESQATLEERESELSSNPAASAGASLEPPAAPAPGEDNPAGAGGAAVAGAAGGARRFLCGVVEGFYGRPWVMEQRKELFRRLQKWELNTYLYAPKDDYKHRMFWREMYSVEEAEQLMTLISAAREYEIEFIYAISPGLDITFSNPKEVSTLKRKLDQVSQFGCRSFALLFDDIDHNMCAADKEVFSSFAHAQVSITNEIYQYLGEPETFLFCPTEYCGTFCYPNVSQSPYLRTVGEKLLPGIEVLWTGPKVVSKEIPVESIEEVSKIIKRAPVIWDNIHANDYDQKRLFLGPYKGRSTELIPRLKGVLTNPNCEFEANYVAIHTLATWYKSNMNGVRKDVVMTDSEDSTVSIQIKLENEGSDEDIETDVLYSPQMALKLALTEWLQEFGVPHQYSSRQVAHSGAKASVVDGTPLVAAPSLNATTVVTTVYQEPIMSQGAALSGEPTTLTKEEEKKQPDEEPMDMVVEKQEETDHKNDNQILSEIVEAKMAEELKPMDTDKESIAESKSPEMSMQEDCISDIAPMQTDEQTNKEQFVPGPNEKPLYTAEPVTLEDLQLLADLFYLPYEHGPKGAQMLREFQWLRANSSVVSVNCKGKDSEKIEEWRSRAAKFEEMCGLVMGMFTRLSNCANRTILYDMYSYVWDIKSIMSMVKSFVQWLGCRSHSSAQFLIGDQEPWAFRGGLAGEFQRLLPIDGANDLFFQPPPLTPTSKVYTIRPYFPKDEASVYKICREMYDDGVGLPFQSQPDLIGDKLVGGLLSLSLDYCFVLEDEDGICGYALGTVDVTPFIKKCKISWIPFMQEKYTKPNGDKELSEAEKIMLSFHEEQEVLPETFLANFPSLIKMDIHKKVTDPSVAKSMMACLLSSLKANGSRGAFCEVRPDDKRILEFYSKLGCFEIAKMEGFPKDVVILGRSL
Chain of O-GlcNAcase (Q8VIJ5 whole entry): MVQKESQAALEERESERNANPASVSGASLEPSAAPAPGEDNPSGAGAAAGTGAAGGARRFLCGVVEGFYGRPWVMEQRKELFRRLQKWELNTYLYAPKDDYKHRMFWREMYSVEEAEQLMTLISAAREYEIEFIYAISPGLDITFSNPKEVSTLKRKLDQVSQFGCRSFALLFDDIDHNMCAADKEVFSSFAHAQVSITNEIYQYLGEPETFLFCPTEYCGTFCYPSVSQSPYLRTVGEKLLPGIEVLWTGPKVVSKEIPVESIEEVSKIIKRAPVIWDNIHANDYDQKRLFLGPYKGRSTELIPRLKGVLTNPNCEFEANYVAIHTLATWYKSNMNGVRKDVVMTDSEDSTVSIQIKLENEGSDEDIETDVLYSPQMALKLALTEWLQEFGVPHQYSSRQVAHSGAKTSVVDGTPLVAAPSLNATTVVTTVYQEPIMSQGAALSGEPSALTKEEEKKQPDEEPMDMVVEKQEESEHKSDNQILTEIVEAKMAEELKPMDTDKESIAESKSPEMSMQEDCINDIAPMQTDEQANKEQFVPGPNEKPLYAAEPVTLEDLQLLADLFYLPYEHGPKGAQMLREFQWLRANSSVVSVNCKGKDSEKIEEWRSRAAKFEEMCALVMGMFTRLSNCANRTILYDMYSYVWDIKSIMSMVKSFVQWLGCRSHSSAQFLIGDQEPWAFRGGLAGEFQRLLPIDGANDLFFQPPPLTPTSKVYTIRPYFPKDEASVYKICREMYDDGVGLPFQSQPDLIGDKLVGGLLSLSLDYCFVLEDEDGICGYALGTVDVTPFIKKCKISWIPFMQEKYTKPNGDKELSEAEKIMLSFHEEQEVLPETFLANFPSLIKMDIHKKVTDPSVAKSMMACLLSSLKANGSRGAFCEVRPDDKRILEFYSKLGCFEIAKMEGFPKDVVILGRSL

With `OC[C@H]1C[C@@H]2OC(N3CCC3)=N[C@@H]2[C@H](F)[C@@H]1O` [Example 10, (3aS,4S,5R,6R,7aS)-2-(azetidin-1-yl)-4-fluoro-6-(hydroxymethyl)-3a,4,5,6,7,7a-hexahydrobenzo[d]oxazol-5-ol], the inhibition constant (Ki) at human O-GlcNAcase was found to be 7 nM.

In the case of `O[C@@H]1[C@@H](CF)C[C@@H]2OC(N3CCC3)=N[C@@H]2[C@H]1O` [Example 4, (3aR,4R,5R,6S,7aS)-2-(azetidin-1-yl)-6-(fluoromethyl)-3a,4,5,6,7,7a-hexahydrobenzo[d]oxazole-4,5-diol], at human O-GlcNAcase, the affinity corresponds to a Ki of 1.1 nM. On O-GlcNAcase, this molecule returned an EC50 of 5.2 nM. In addition, the apparent permeability (Papp) at 3 h, 1 μM in data set [1] was found to be 5.1 ×10⁻⁶ cm/s.

For `CNC1=N[C@@H]2[C@@H](O)[C@H](O)[C@@H](CF)C[C@@H]2O1` [Example 2, (3aR,4R,5R,6S,7aS)-6-(fluoromethyl)-2-(methylamino)-3a,4,5,6,7,7a-hexahydrobenzo[d]oxazole-4,5-diol], the Papp at 3 h, 1 μM in data set [1] stood at 6.5 ×10⁻⁶ cm/s.

Consider `O[C@H]1[C@H](O)[C@@H](C(F)F)C[C@@H]2OC(N3CCC3)=N[C@H]12` [Example 6, (3aR,4R,5R,6S,7aS)-2-(azetidin-1-yl)-6-(difluoromethyl)-3a,4,5,6,7,7a-hexahydrobenzo[d]oxazole-4,5-diol], for which the affinity on human O-GlcNAcase corresponds to a Ki of 0.7 nM. At O-GlcNAcase, this molecule registered an EC50 of 5.1 nM. Besides, in data set [1], the Papp at 3 h, 1 μM worked out at 2.8 ×10⁻⁶ cm/s.

At human O-GlcNAcase, `CNC1=N[C@@H]2[C@H](F)[C@H](O)[C@@H](CO)C[C@@H]2O1` [Example 12, (3aS,4S,5R,6R,7aS)-4-fluoro-6-(hydroxymethyl)-2-(methylamino)-3a,4,5,6,7,7a-hexahydrobenzo[d]oxazol-5-ol] displayed a Ki of 8.6 nM. For the same molecule, the Papp at 3 h, 1 μM in data set [1] was 2.2 ×10⁻⁶ cm/s.

Molecule `CNC1=N[C@@H]2[C@@H](O)[C@H](O)[C@@H](C(F)F)C[C@@H]2O1` [Example 8, (3aR,4R,5R,6S,7aS)-6-(difluoromethyl)-2-(methylamino)-3a,4,5,6,7,7a-hexahydrobenzo[d]oxazole-4,5-diol] gave a Ki at human O-GlcNAcase of 1.4 nM. This molecule returned an EC50 on O-GlcNAcase of 4.7 nM. Moreover, in data set [1], the Papp at 3 h, 1 μM is 2.7 ×10⁻⁶ cm/s.

Molecule `O[C@H]1[C@@H](F)[C@H]2N=C(N3CCC3)O[C@H]2C[C@@H]1C(F)F` [Example 15, (3aS,4S,5R,6S,7aS)-2-(azetidin-1-yl)-6-(difluoromethyl)-4-fluoro-3a,4,5,6,7,7a-hexahydrobenzo[d]oxazol-5-ol] showed a Ki at human O-GlcNAcase of 20.5 nM. In data set [1], the Papp at 3 h, 1 μM is 6.5 ×10⁻⁶ cm/s.

As usually defined, the Ki is a measure of affinity in units of concentration, obtained from inhibition or displacement. A low value points to higher affinity. A word on the EC50: it is the concentration giving half of the maximal effect. A high value points to lower potency in that assay. By Papp is commonly meant a coefficient for how fast a substance crosses the barrier.
